# In ChEMBL document CHEMBL4828747, “Structure-Activity Relationships of Withanolides as Antiproliferative Agents for Multiple Myeloma: Comparison of Activity in 2D Models and a 3D Coculture Model” (J Nat Prod, 2021):
# Key:
# [1] = Antiproliferative activity against human MM1.R cells assessed as reduction in cell viability incubated for 72 hrs by XTT assay; format: functional, cell-based; settings: MM.1R
# RPMI-8226 [2] = assay: Antiproliferative activity against human RPMI 8226 cells assessed as reduction in cell viability incubated for 72 hrs by XTT assay; format: functional, cell-based; settings: RPMI-8226, 72 h
# MM1.S = assay: Antiproliferative activity against human MM1.S cells assessed as reduction in cell viability incubated for 72 hrs by XTT assay; format: functional, cell-based
# RPMI-8226 [3] = assay: Antiproliferative activity against human RPMI-8226 cells cultured as 3D-spheroids assessed as reduction in cell viability after 48 hrs by Celltiter-Glo assay; format: functional, cell-based; settings: RPMI-8226, 48 h
# [4] = Stability in human RPMI 8226 cells medium measured upto 72 hrs by HPLC analysis; format: ADME, cell-based; settings: rpmi-8226, 72 h
Compound,IC50 (RPMI-8226 [2]) [nM],IC50 (MM1.S) [nM],IC50 (RPMI-8226 [3]) [nM],Stability [4],IC50 [1] [nM]
CC(=O)OCC1=C(C)C[C@H]([C@@H](C)[C@H]2CC[C@H]3[C@@H]4C[C@H]5O[C@]56[C@@H](O)C=CC(=O)[C@]6(C)[C@H]4CC[C@]23C)OC1=O,212,114,1510,–,107
CC1=C(CO)C(=O)O[C@@H]([C@@H](C)[C@H]2CC[C@H]3[C@@H]4C[C@H]5O[C@]56[C@@H](O)[C@@H](OS(=O)(=O)O)CC(=O)[C@]6(C)[C@H]4CC[C@]23C)C1,218,115,8520,–,129
CC(=O)OCC1=C(C)C[C@H]([C@@H](C)[C@H]2CC[C@H]3[C@@H]4CC=C5C(=O)C=C[C@@H](OC(C)=O)[C@]5(C)[C@H]4CC[C@]23C)OC1=O,942,–,–,–,–
CC(=O)OCC1=C(C)C[C@H]([C@@H](C)[C@H]2CC[C@H]3[C@@H]4C[C@H]5O[C@]56C(=O)C=CC(=O)[C@]6(C)[C@H]4CC[C@]23C)OC1=O,777,–,–,–,–
CC1=C(C)C(=O)O[C@@H]([C@](C)(O)[C@H]2CC[C@H]3[C@@H]4C[C@H]5O[C@]56[C@@H](O)C=CC(=O)[C@]6(C)[C@H]4CC[C@]23C)C1 [WITHANOLIDE D],76,107,980,–,106
CC1=C(C)C(=O)O[C@@H]([C@](C)(O)[C@H]2CC[C@H]3[C@@H]4CC=C5[C@H](O)C=CC(=O)[C@]5(C)[C@H]4CC[C@]23C)C1,768,–,–,–,–
CC1=C(C)C(=O)O[C@@H]([C@](C)(O)[C@H]2CC[C@H]3[C@@H]4C[C@H](I)[C@]5(O)C(=O)C=CC(=O)[C@]5(C)[C@H]4CC[C@]23C)C1,950,–,–,–,–
CC1=C(C)C(=O)O[C@@H]([C@](C)(O)[C@H]2CC[C@H]3[C@@H]4C[C@H]5O[C@]56C(O)C=CC(=O)[C@]6(C)[C@H]4CC[C@]23C)C1 (some centres not stated),297,441,1570,–,372
CC1=C(C)C(=O)O[C@@H]([C@](C)(O)[C@H]2[C@@H](O)C[C@H]3[C@@H]4C[C@H](I)[C@]5(O)[C@@H](O)C=CC(=O)[C@]5(C)[C@H]4CC[C@]23C)C1,609,–,–,–,–
C[C@H]1C[C@H]([C@](C)(O)[C@H]2[C@@H](O)C[C@H]3[C@@H]4C[C@H]5O[C@]56[C@@H](O)C=CC(=O)[C@]6(C)[C@H]4CC[C@]23C)OC(=O)[C@@H]1C,273,623,3230,–,425
CC1=C(CO[Si](C)(C)C(C)(C)C)C(=O)O[C@@H]([C@@H](C)[C@H]2CC[C@H]3[C@@H]4C[C@H]5O[C@]56[C@@H](O[Si](C)(C)C)C=CC(=O)[C@]6(C)[C@H]4CC[C@]23C)C1,–,–,–,Stable,–
CC(=O)OCC1=C(C)C[C@H]([C@@H](C)[C@H]2CC[C@H]3[C@@H]4CC=C5C(O)C=CC(=O)[C@]5(C)[C@H]4CC[C@]23C)OC1=O (some centres not stated),770,–,–,–,–
CC1=C(C)C(=O)O[C@@H]([C@](C)(O)[C@H]2CC[C@H]3[C@@H]4C[C@H]5O[C@]56CC=CC(=O)[C@]6(C)[C@H]4CC[C@]23C)C1,744,–,–,–,–
CC1=C(CO)C(=O)O[C@@H]([C@@H](C)[C@H]2CC[C@H]3[C@@H]4C[C@H](I)[C@]5(O)[C@@H](O)C=CC(=O)[C@]5(C)[C@H]4CC[C@]23C)C1,889,–,–,–,–
CC1=C(C)C(=O)O[C@@H]([C@](C)(O)[C@H]2CC[C@H]3[C@@H]4CC=C5C(=O)C=CC(=O)[C@]5(C)[C@H]4CC[C@]23C)C1,780,–,–,–,–

# Second part, led by results:
IC50 (RPMI-8226 [2]) [nM],IC50 (MM1.S) [nM],IC50 (RPMI-8226 [3]) [nM],Stability [4],Compound,IC50 [1] [nM]
276,750,> 40000,–,CC1=C(C)C(=O)O[C@@H]([C@](C)(O)[C@H]2CC[C@H]3[C@@H]4C[C@H]5O[C@]56C(=O)C=CC(=O)[C@]6(C)[C@H]4CC[C@]23C)C1,858
451,1290,12300,–,C[C@H]1C(=O)O[C@@H]([C@](C)(O)[C@H]2CC[C@H]3[C@@H]4C[C@H]5O[C@]56[C@@H](O)C=CC(=O)[C@]6(C)[C@H]4CC[C@]23C)C[C@@]1(C)O,997
258,53,1600,–,CC1=C(CO)C(=O)O[C@@H]([C@@H](C)[C@H]2CC[C@H]3[C@@H]4C[C@H]5O[C@]56[C@@H](O)C=CC(=O)[C@]6(C)[C@H]4CC[C@]23C)C1 [WITHAFERIN A],263
252,206,820,–,CC(=O)O[C@H]1C=CC(=O)[C@]2(C)[C@H]3CC[C@]4(C)[C@@H]([C@@](C)(O)[C@H]5CC(C)=C(C)C(=O)O5)CC[C@H]4[C@@H]3C[C@H]3O[C@]132,350
301,601,1640,–,CC(=O)O[C@@H]1C=CC(=O)[C@]2(C)[C@H]3CC[C@]4(C)[C@@H]([C@@](C)(O)[C@H]5CC(C)=C(C)C(=O)O5)CC[C@H]4[C@@H]3C[C@H]3O[C@]132,522
270,60,2620,–,CC1=C(CO)C(=O)O[C@@H]([C@@H](C)[C@H]2CC[C@H]3[C@@H]4C[C@H]5O[C@]56[C@@H](O)[C@@H](n5ccnc5)CC(=O)[C@]6(C)[C@H]4CC[C@]23C)C1,75
545,–,–,–,CC1=C(C)C(=O)O[C@@H]([C@](C)(O)[C@H]2CC[C@H]3[C@@H]4C[C@H](I)[C@]5(O)[C@@H](O)C=CC(=O)[C@]5(C)[C@H]4CC[C@]23C)C1,–
217,370,3420,–,CC(=O)O[C@H]1C=CC(=O)[C@]2(C)[C@H]3CC[C@@]4(C)[C@H]([C@@H]3C[C@H]3O[C@]132)[C@H](OC(C)=O)C[C@@H]4[C@@](C)(O)[C@H]1CC(C)=C(C)C(=O)O1,322
252,229,> 40000,–,CC(=O)OCC1=C(C)C[C@H]([C@@H](C)[C@H]2CC[C@H]3[C@@H]4C[C@H]5O[C@]56[C@@H](O)[C@@H](OC(C)=O)CC(=O)[C@]6(C)[C@H]4CC[C@]23C)OC1=O,374
506,1820,> 40000,–,C[C@H]1C[C@H]([C@](C)(O)[C@@]2(O)CC[C@H]3[C@@H]4C[C@H]5O[C@]56[C@@H](O)C=CC(=O)[C@]6(C)[C@H]4CC[C@@]32C)OC(=O)[C@@H]1C,1090
239,559,4650,–,C[C@@H]1[C@@H](C)C(=O)OC12C[C@](C)(O)C1[C@H](C[C@H]3[C@@H]4C[C@H]5O[C@]56[C@@H](O)C=CC(=O)[C@]6(C)[C@H]4CC[C@]13C)O2 (some centres not stated),366
203,97,1390,–,CC(=O)O[C@H]1C=CC(=O)[C@]2(C)[C@H]3CC[C@]4(C)[C@@H]([C@H](C)[C@H]5CC(C)=C(CO)C(=O)O5)CC[C@H]4[C@@H]3C[C@H]3O[C@]132,129
484,55,1870,–,CC1=C(CO)C(=O)O[C@@H]([C@@H](C)[C@H]2CC[C@H]3[C@@H]4C[C@H]5O[C@]56[C@@H](O)[C@@H](N5CCCCC5)CC(=O)[C@]6(C)[C@H]4CC[C@]23C)C1,80
4.7,2.5,6.4,–,CC(C)C[C@H](NC(=O)[C@H](Cc1ccccc1)NC(=O)c1cnccn1)B(O)O [BORTEZOMIB],2.4
458,246,9930,–,CC(=O)OCC1=C(C)C[C@H]([C@@H](C)[C@H]2CC[C@H]3[C@@H]4CC=C5C(=O)C=CC(=O)[C@]5(C)[C@H]4CC[C@]23C)OC1=O,236
122,338,2290,–,CC1C(=O)O[C@@H]([C@](C)(O)C2=CC[C@@]3(O)[C@@H]4C[C@H]5O[C@]56[C@@H](O)C=CC(=O)[C@]6(C)[C@H]4CC[C@]23C)C[C@@H]1C (some centres not stated),209
601,–,–,–,C[C@H]1[C@H]([C@@H](O)[C@](C)(O)[C@H]2[C@@H](O)C[C@H]3[C@@H]4C[C@H]5O[C@]56[C@@H](O)C=CC(=O)[C@]6(C)[C@H]4CC[C@]23C)OC(=O)[C@@H]1C,–
